Tested on: MDA-MB-231 (breast) cancer cell line
Assay: MTT cell viability assay, MDA-MB-231
Assay type: cell-based, human
Settings: Homo sapiens, MDA-MB-231, 48 h, read-out: Cell growth %, MDA-MB-231, 50 µM, 48 h, MTT
Procedure: Cell lines were purchased from the American Type Culture Collection (ATCC). Cell lines MDA-MB-231, HTB-54, DU-145, and BEAS-2B were cultured in RPMI 1640 medium (Gibco, Thermo Fisher Scientific, Gaithersburg, MD, USA) supplemented with 10% fetal bovine serum (FBS; Gibco), 100 units/mL penicillin, and […] streptomycin (Gibco). HT-29 cell line was grown in McCoy’s 5A (Gibco), 10% FBS, 100 units/mL penicillin, and 100 μg/mL streptomycin. Cells were maintained at 37 °C and 5% CO2. The culture medium was changed every three days.
The cell viability of each compound was measured by MTT colorimetric assay. Each compound was dissolved in DMSO at a concentration of 0.01 M. Each compound was tested at two different concentrations (10 and 50 µM) in MDA-MB-231 (breast), HTB-54 (lung), DU-145 (prostate), and HT-29 (colon) human cancer cell lines. Serial dilutions were prepared with supplemented culture medium. […] IC50 and selectivity indexes (SI) were determined.
Briefly, 1 × 10^4 tumor cells per well were grown in 96-well plates for 24 h. Then, these cells were incubated for 48 h with either DMSO (control) or a different concentration of each of the tested compounds. The cell viability was determined by adding 20 μL of MTT two hours and a half before the termination point. After this time, the culture medium was removed. The resulting formazan crystals were dissolved in 50 μL of DMSO, and the absorbance was measured at 570 nm. Results are expressed as % cell growth. The data were obtained from at least three independent experiments performed in quadruplicate.
For `C=CCNC(=[Se])NC(=O)c1cccc(C(=O)NC(=[Se])NCC=C)c1` [Compound 10.II, N^1,N^3-bis(allylcarbamoselenoyl)isophthalamide], the activity at 50 µM was 21 ± 9.4%.

Tested on: not listed separately
Assay: DPPH radical scavenging assay
Assay type: biochemical
Settings: 0.003 mg/mL, 0 min
Procedure: Different methods are available to quantify the antioxidant capacity of natural or novel molecules. Notable among these are the ABTS^•+ and DPPH^• methods, which measure the quenching efficiency in vitro for known concentrations of preformed radicals. In this work, the DPPH^• colorimetric assay was carried out. Measurements were recorded on a BioTeck PowerWave XS spectrophotometer (BioTeck Instruments, Winooski, VT, USA) and data were collected using KCJunior v.1.41. software (BioTeck Instruments, Winooski, VT, USA). Compounds with potent activity were selected to further determine their protective effect against ROS-induced cell death caused by H2O2.
DPPH colorimetric assay was performed to determine the in vitro radical scavenging activity of the acylselenourea derivatives. DPPH assay was performed as described by Svinyarov. For each acylselenourea, a stock solution of 1 mg/mL in dimethyl sulfoxide (DMSO) was made, and these solutions were used to prepare the different concentrations employed in the assay. The compounds were tested at two different concentrations (0.003 and 0.03 mg/mL). Intermediate solutions were prepared in methanol and a volume of 100 µL of each was added to each well of the plate. Then, 100 µL of DPPH^• (previously prepared at a concentration of 0.04 mg/mL in methanol and preserved in the dark) was added to the previous methanolic acylselenourea solutions. The discoloration of the purple radical to the yellow reduced form was followed at 517 nm at different time points (0, 5, 15, 30, 60, 90, and 120 min). Ascorbic acid and trolox were used as positive controls. All measurements were carried out in triplicate. Results are expressed as the percentage of the radicals scavenged, calculated using the following formula: (1) % DPPH radical scavenging=Acontrol - Asample/Acontrol × 100 where Acontrol refers to the absorbance of the negative control and Asample refers to the absorbance of the tested compounds. Results are expressed as percentage of DPPH radical scavenging ± SD.
`C=CCNC(=[Se])NC(=O)c1cccc(C(=O)NC(=[Se])NCC=C)c1` [Compound 10.II, N^1,N^3-bis(allylcarbamoselenoyl)isophthalamide] gave an inhibition of 0.9 ± 1.8%.

Same assay, conditions: 0.003 mg/mL, 5 min
`C=CCNC(=[Se])NC(=O)c1cccc(C(=O)NC(=[Se])NCC=C)c1` [Compound 10.II, N^1,N^3-bis(allylcarbamoselenoyl)isophthalamide] showed an inhibition of 6.7 ± 1.7%.

Same assay, conditions: 0.003 mg/mL, 15 min
Work on `C=CCNC(=[Se])NC(=O)c1cccc(C(=O)NC(=[Se])NCC=C)c1` [Compound 10.II, N^1,N^3-bis(allylcarbamoselenoyl)isophthalamide] yielded an inhibition of 11.5 ± 1.5%.

Same assay, conditions: 0.003 mg/mL, 30 min
`C=CCNC(=[Se])NC(=O)c1cccc(C(=O)NC(=[Se])NCC=C)c1` [Compound 10.II, N^1,N^3-bis(allylcarbamoselenoyl)isophthalamide] gave an inhibition of 14.7 ± 1.2%.

Same assay, conditions: 0.003 mg/mL, 60 min
With `C=CCNC(=[Se])NC(=O)c1cccc(C(=O)NC(=[Se])NCC=C)c1` [Compound 10.II, N^1,N^3-bis(allylcarbamoselenoyl)isophthalamide] the inhibition was 17.7 ± 1.1%.

Same assay, conditions: 0.003 mg/mL, 90 min
Work on `C=CCNC(=[Se])NC(=O)c1cccc(C(=O)NC(=[Se])NCC=C)c1` [Compound 10.II, N^1,N^3-bis(allylcarbamoselenoyl)isophthalamide] yielded an inhibition of 19 ± 0.9%.

Same assay, conditions: 0.003 mg/mL, 120 min
Work on `C=CCNC(=[Se])NC(=O)c1cccc(C(=O)NC(=[Se])NCC=C)c1` [Compound 10.II, N^1,N^3-bis(allylcarbamoselenoyl)isophthalamide] yielded an inhibition of 19.7 ± 0.9%.

Same assay, conditions: 0.03 mg/mL
In the case of `C=CCNC(=[Se])NC(=O)c1cccc(C(=O)NC(=[Se])NCC=C)c1` [Compound 10.II, N^1,N^3-bis(allylcarbamoselenoyl)isophthalamide], the “time to reach the highest DPPH inhibition” value is reported as 60 min.

Same assay, conditions: 0.03 mg/mL, 0 min
Work on `C=CCNC(=[Se])NC(=O)c1cccc(C(=O)NC(=[Se])NCC=C)c1` [Compound 10.II, N^1,N^3-bis(allylcarbamoselenoyl)isophthalamide] yielded an inhibition of 31.6 ± 4.1%.

Same assay, conditions: 0.03 mg/mL, 5 min
`C=CCNC(=[Se])NC(=O)c1cccc(C(=O)NC(=[Se])NCC=C)c1` [Compound 10.II, N^1,N^3-bis(allylcarbamoselenoyl)isophthalamide] gave an inhibition of 69.1 ± 0.1%.

Same assay, conditions: 0.03 mg/mL, 15 min
`C=CCNC(=[Se])NC(=O)c1cccc(C(=O)NC(=[Se])NCC=C)c1` [Compound 10.II, N^1,N^3-bis(allylcarbamoselenoyl)isophthalamide] showed an inhibition of 86.3 ± 0.9%.

Same assay, conditions: 0.03 mg/mL, 30 min
`C=CCNC(=[Se])NC(=O)c1cccc(C(=O)NC(=[Se])NCC=C)c1` [Compound 10.II, N^1,N^3-bis(allylcarbamoselenoyl)isophthalamide] gave an inhibition of 94.4 ± 0.7%.

Same assay, conditions: 0.03 mg/mL, 60 min
In the case of `C=CCNC(=[Se])NC(=O)c1cccc(C(=O)NC(=[Se])NCC=C)c1` [Compound 10.II, N^1,N^3-bis(allylcarbamoselenoyl)isophthalamide], the inhibition is reported as 96.1 ± 0.1%.

Same assay, conditions: 0.03 mg/mL, 90 min
In the case of `C=CCNC(=[Se])NC(=O)c1cccc(C(=O)NC(=[Se])NCC=C)c1` [Compound 10.II, N^1,N^3-bis(allylcarbamoselenoyl)isophthalamide], the inhibition is reported as 96 ± 0.2%.

Same assay, conditions: 0.03 mg/mL, 120 min
Molecule `C=CCNC(=[Se])NC(=O)c1cccc(C(=O)NC(=[Se])NCC=C)c1` [Compound 10.II, N^1,N^3-bis(allylcarbamoselenoyl)isophthalamide] has an inhibition of 96 ± 0.3%.

Source: PMC10376326, “Novel Acylselenourea Derivatives: Dual Molecules with Anticancer and Radical Scavenging Activity” (Antioxidants, 2023)
